Literature values in patent US20150157610A1, “PHARMACEUTICAL COMPOSITION FOR TREATING INFLAMMATORY DISEASE” (OSAKA UNIVERSITY, priority 2012, published 2015).

Test system: fulminant myocarditis
Details: experimental, Non Patent Literature 2 and 3

CCCCCCCCc1ccc(CCC(N)(CO)CO)cc1 [FTY720]
efficacy against fulminant myocarditis: experimentally effective
